These compounds were tested against T1, jack bean urease (Canavalia ensiformis, UniProt P07374) (assay: phenol red pH-rise urease assay, […] nm, time from pH […] to […]).
T1 construct: native jack bean urease
Type: biochemical

T1 sequence (P07374 whole entry): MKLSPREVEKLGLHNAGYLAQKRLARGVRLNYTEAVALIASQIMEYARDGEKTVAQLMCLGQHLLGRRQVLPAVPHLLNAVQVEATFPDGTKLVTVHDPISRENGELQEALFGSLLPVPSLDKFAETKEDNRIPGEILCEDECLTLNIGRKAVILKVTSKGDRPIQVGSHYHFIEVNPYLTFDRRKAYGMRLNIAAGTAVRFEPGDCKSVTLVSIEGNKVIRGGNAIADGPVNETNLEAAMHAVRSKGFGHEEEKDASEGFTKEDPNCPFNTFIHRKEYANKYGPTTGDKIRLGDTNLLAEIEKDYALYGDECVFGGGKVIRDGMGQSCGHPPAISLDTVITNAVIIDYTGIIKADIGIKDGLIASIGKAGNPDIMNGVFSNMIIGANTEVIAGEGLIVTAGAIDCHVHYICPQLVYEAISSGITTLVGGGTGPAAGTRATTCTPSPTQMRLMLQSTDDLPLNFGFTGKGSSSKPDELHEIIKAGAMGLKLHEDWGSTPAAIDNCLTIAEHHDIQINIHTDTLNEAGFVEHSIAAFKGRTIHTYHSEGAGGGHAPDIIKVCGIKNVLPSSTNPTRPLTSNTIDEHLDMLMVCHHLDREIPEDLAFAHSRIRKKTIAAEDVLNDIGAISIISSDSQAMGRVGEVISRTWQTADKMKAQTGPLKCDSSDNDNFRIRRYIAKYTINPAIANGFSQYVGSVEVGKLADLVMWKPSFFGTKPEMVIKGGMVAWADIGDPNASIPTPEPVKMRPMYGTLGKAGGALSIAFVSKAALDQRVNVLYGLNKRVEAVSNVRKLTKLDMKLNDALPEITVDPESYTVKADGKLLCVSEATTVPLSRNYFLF

Question: For CC(=O)NO [Acetohydroxamic acid, reference compound], which IC50 is on record?
Answer: The IC50 was 185 ± 6.2 µM.

Question: O=C(NN=Cc1ccc(C(F)(F)F)cc1)c1ccncc1 [L1] was tested. Which IC50 did it give?
Answer: Its IC50 is greater than 500 µM.

Question: Which IC50 does the source give for O=C(NN=Cc1ccccc1C(F)(F)F)c1ccncc1 [L2, N-[[(2-trifluoromethyl)phenyl]methylidene]pyridine-4-carbohydrazide] here?
Answer: Its IC50 is greater than 500 µM.

Question: For O=C(NN=Cc1ccc(F)cc1)c1ccncc1 [L3, N-[(4-fluorophenyl)methylidene]pyridine-4-carbohydrazide monohydrate], which IC50 is on record?
Answer: The IC50 was greater than 500 µM.

Question: How did the IC50 turn out when O=C(NN=Cc1cc(F)ccc1O)c1ccncc1 [L4, N-[(5-fluoro-2-hydroxyphenyl)methylidene]pyridine-4-carbohydrazide] was run?
Answer: The IC50 was greater than 500 µM.

Question: O=C(NN=Cc1cccc(F)c1O)c1ccncc1 [L5, N-[(3-fluoro-2-hydroxyphenyl)methylidene]pyridine-4-carbohydrazide] was tested. Which IC50 did it give?
Answer: Its IC50 is greater than 500 µM.

Question: O=C(NN=Cc1ccccc1)c1ccncc1 [L6, N-(benzylidene)pyridine-4-carbohydrazide] was tested. Which IC50 did it give?
Answer: Its IC50 is greater than 500 µM.
